The record followed here is patent US11802131B2, “Glutarimides for medical treatment” (C4 Therapeutics, Inc., priority 2017, dated 2023).

Structures are written as SMILES.

This assay has as its target hCereblon(M1-L442)_hDDB1(M1-H1140) (Homo sapiens (Human), UniProt Q96SW2). The assay is described as follows: Fluorescence direct binding protocol (tryptophan fluorescence titration). As to conditions: 20° C., excited at 280 nm, recorded at 340 nm, assay buffer 50 mM Hepes 7.4 200 mM NaCl; read-out: Fluorescence h-Cereblon_DDB1 Mean Kd_EQ. The procedure:
Fluorescence Direct Binding Protocol
Determination of the affinities of compounds to protein containing one or more tryptophan is measurable by monitoring the fluorescence emission in direct mode. The measurements depending on the protein available amounts are performed either manually in a cuvette on ISS-PC1 photon counting spectrofluorometer or automatically in well plates on a fluorescence plate reader device. Fluorescence titrations are performed at 20° C. in the chosen binding assay buffer by using a defined constant protein concentration against ligand concentration variations. Small aliquots of known ligand concentration solubilized in DMSO were added and the fluorescence, excited at 280 nm, was recorded at 340 nm. The fluorescence intensity was corrected for protein dilution and for the filter effect (Birdsall et al.^72).
1) Optimization of measurement parameters to minimize protein consumption and to minimize the dilution effect and the DMSO content
2) Titration measurements of the protein against ligand by at least 12 titration steps to obtain a good s-curve fit
3) Repeat the same titration measurements with the ligand alone to enable correction
4) Check the stability of the protein once by titration against DMSO alone
5) Determination of the molar extinction coefficients of the ligand at 280 and 340 nm with help of an UV-spectrophotometer
6) Use Excel template for the correction of the measured raw data
7) Use GraphPad Prism software for the quadratic binding fit and the KD evaluation.

Chain of hCereblon(M1-L442)_hDDB1(M1-H1140) (Q96SW2 whole entry): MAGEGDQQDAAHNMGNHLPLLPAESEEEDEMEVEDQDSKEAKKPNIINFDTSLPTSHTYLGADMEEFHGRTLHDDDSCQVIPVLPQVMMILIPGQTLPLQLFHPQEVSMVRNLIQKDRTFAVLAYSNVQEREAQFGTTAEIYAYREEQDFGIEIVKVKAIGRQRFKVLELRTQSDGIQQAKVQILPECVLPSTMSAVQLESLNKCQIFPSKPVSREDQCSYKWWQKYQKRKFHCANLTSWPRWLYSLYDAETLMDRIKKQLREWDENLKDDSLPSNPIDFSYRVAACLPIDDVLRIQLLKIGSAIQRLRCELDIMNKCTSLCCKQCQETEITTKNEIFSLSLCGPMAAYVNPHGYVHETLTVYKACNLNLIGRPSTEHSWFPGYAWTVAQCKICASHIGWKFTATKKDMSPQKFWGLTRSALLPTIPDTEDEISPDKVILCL
Chain of hCereblon(M1-L442)_hDDB1(M1-H1140) (Q16531 whole entry partner): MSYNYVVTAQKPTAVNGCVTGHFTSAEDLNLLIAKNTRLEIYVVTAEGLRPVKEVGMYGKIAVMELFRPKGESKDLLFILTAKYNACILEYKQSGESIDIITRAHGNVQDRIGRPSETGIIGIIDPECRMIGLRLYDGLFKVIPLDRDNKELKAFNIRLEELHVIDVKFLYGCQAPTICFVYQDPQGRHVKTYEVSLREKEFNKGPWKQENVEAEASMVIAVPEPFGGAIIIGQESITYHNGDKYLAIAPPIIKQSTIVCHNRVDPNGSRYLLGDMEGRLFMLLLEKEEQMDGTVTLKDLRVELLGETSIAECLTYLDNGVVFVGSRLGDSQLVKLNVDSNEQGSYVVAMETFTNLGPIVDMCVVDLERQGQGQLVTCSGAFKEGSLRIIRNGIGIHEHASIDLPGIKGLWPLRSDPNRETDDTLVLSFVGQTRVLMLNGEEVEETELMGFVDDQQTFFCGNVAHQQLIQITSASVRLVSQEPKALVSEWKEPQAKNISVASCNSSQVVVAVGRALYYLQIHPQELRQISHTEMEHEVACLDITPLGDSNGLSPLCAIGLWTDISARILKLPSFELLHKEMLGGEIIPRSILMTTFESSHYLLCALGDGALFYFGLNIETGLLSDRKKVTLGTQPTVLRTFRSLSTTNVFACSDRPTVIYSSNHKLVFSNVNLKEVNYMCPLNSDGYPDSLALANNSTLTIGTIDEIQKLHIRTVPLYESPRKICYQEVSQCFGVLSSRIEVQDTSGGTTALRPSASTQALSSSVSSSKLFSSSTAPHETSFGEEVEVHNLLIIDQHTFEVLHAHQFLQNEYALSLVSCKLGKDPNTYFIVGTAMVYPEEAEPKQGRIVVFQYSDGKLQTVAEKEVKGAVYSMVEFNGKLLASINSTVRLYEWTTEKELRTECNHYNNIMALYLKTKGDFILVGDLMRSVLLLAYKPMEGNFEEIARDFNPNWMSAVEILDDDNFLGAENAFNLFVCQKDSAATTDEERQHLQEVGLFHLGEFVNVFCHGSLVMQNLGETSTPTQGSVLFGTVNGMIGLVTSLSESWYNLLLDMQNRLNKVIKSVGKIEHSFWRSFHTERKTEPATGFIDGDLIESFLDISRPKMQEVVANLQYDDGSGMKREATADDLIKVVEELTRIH

As to `O=C1CC[C@@H](NC(=O)C2CCc3cccnc32)C(=O)N1` (mixture of isomers) [Example 22], the Kd was under 0.001 µM. Next, `O=C1CCC(NC(=O)C2CCc3ccccc32)C(=O)N1` (racemic) [Example 2, N-(2,6-Dioxopiperidin-3-yl)-2,3-dihydro-1H-indene-1-carboxamide]: 0.655 µM; `CN1C(=O)CCC(NC(=O)[C@H]2CCCc3ccccc32)C1=O` (single isomer, unassigned) [Example 74]: 0.005 µM; `CN1C(=O)CCC(NC(=O)[C@H]2CCCc3ccccc32)C1=O` (single isomer, unassigned) [Example 75]: 0.046 µM. Regarding `O=C1CCC(NC(=O)C2CCc3ccccc32)C(=O)N1` (single isomer, unassigned; (+)) [Example 5, (+)-N-(2,6-Dioxopiperidin-3-yl)-2,3-dihydro-1H-indene-1-carboxamide], the Kd is 0.197 µM. As to `O=C1CCC(NC(=O)C2CCc3ccccc32)C(=O)N1` (single isomer, unassigned; (-)) [Example 4, (−)-N-(2,6-Dioxopiperidin-3-yl)-2,3-dihydro-1H-indene-1-carboxamide], the Kd amounted to 0.068 µM. In the case of `O=C1CC[C@H](NC(=O)Cc2ccccc2)C(=O)N1` [Example 1, (S)-N-(2,6-Dioxo-3-piperidinyl)benzeneacetamide] it was 0.027 µM; in that of `CCCN1Cc2ccccc2C1C(=O)NC1CCC(=O)NC1=O` (centres unmarked) [Example 3, N-(2,6-Dioxopiperidin-3-yl)-2-propylisoindoline-1-carboxamide], 0.057 µM; in that of `O=C1CCC(NC(=O)C2CCc3ccccc32)C(=O)N1` (centres unmarked) [Example 6, N-(2,6-Dioxopiperidin-3-yl)-2,3-dihydro-1H-indene-1-carboxamide], 0.146 µM. Next, `O=C1CCC(NC(=O)c2c[nH]c3ccccc23)C(=O)N1` (centres unmarked) [Example 7, N-(2,6-Dioxopiperidin-3-yl)-1H-indole-3-carboxamide]: 0.028 µM.

With `Cn1cc(C(=O)NC2CCC(=O)NC2=O)c2ccccc21` (centres unmarked) [Example 8, N-(2,6-Dioxopiperidin-3-yl)-1-methyl-1H-indole-3-carboxamide], the Kd is 0.03 µM. Next, `O=C1CCC(NC(=O)N2CCc3ccccc32)C(=O)N1` (centres unmarked) [Example 9, N-(2,6-Dioxopiperidin-3-yl)indoline-1-carboxamide]: 0.002 µM; `O=C1CCC(NC(=O)C2CCCC2)C(=O)N1` (centres unmarked) [Example 11, N-(2,6-Dioxopiperidin-3-yl)cyclopentanecarboxamide]: 0.012 µM; `O=C1CCC(NC(=O)c2coc3ccccc23)C(=O)N1` (centres unmarked) [Example 12, N-(2,6-Dioxopiperidin-3-yl)benzofuran-3-carboxamide]: 0.002 µM.

Take `O=C1CCC(NC(=O)c2csc3ccccc23)C(=O)N1` (centres unmarked) [Example 13, N-(2,6-Dioxopiperidin-3-yl)benzo[b]thiophene-3-carboxamide]: the Kd is 0.008 µM.

Take `O=C1CCC(NC(=O)[C@@H]2CCCc3ccccc32)C(=O)N1` (stereo partly drawn) [Example 14, (1R)-N-(2,6-Dioxopiperidin-3-yl)-1,2,3,4-tetrahydronaphthalene-1-carboxamide]: the Kd came to 0.004 µM. As for `O=C1CCC(NC(=O)[C@H]2CCCc3ccccc32)C(=O)N1` (stereo partly drawn) [Example 15, (1S)-N-(2,6-Dioxopiperidin-3-yl)-1,2,3,4-tetrahydronaphthalene-1-carboxamide], the Kd was under 0.001 µM. Next, `CN(C(=O)c1c[nH]c2ccccc12)C1CCC(=O)NC1=O` (centres unmarked) [Example 16, N-(2,6-Dioxopiperidin-3-yl)-N-methyl-1H-indole-3-carboxamide]: 0.003 µM; `O=C1CC[C@H](NC(=O)c2c[nH]c3ccccc23)C(=O)N1` [Example 17, (S)-N-(2,6-Dioxopiperidin-3-yl)-1H-indole-3-carboxamide]: 0.014 µM.

`O=C1CC[C@@H](NC(=O)c2c[nH]c3ccccc23)C(=O)N1` [Example 18, (R)-N-(2,6-Dioxopiperidin-3-yl)-1H-indole-3-carboxamide]: the Kd stood at 0.014 µM.
